# Source: patent US10053484B2, “Heterocycle-substituted xanthene dyes” (Biotium, Inc., priority 2009, dated 2018)
# “Also recorded” adds a separate entry of the source.
# Experiments:
# [1] = Measurement of absorption and emission spectra of free dyes or dye-protein conjugates; format: physicochemical; conditions: for Absorption Wavelengths / Emission Wavelengths: in PBS
# Description: The absorption spectra of free dyes or dye-antibody conjugates were measured on Beckman Coulter DU800 in pH 7.4 PBS. The concentrations of the dyes or conjugates were adjusted so that the maximal absorbance was around 1.0. The fluorescence emission spectra of the free dyes and conjugates were measured on a Hitachi F4500.
# [2] = Photostability comparison of dye-antibody conjugates on stained fixed Jurkat cells (microscopy, Cy5 filter set); format: physicochemical; conditions: for photostability: goat anti-mouse IgG conjugates on fixed Jurkat cells, continuous illumination, relative fluorescence vs. time (FIG. 5)
# Description: Jurkat cells were fixed and stained with intracellular mouse anti-human CD3 primary antibody (0.375 ug) followed by 1 ug of goat-anti-mouse IgG conjugated to AlexaFluor633 (DOL 2.3), compound No. 6 (DOL 2.3), DyLight649 (DOL˜6), or Alexa Fluor 647 (DOL˜6). The DOL for each conjugate was the optimal value for each dye. Images were taken on an Olympus mercury arc lamp microscope using a Cy5 filter set. The relative fluorescence vs. time for each sample was plotted (FIG. 5). Traditionally, sulfonated cyanine dyes, such as Alexa Fluor 647 and DyLight 647, have been used for the 633 nm excitation by the HeNe laser with red emission. More recently, rhodamine-based Alexa Fluor 633 dye has become commercially available.
# [3] = test system: HeLa cells; experiment: Mitochondrial staining of live HeLa cells; format: cell-based; conditions: 200 nM compound No. 16 or 10 uM compound No. 74, DMEM, 30 minutes, 37° C. (FIG. 9)
# Description: HeLa cells were cultured for 2 days at 37° C., 5% CO2. Live cells were stained with 200 nM compound No. 16 or 10 uM compound No. 74 in DMEM media for 30 minutes at 37° C., 5% CO2. Cells were washed in fresh medium and cells were viewed on a mercury arc lamp microscope using a Cy5 filter set. Images were taken using a CCD camera and Image Pro Express software.
# [4] = test system: Jurkat cells; experiment: Mitochondrial staining as a function of membrane potential (flow cytometry, with/without CCCP); format: cell-based; conditions: 50 nM dye with and without 50 uM CCCP, 30 minutes, FL4 channel (FIG. 10)
# Description: Live Jurkat cells were stained with 50 nM Compound No. 16 with and without 50 uM carbonyl cyanide m-chlorophenyl hydrozone (CCCP) for 30 minutes prior to analysis by flow cytometry on the FL4 channel of a BD FACS Calibur. Treatment with CCCP disrupts the mitochondrial membrane potential. The graph depicts the relative geometric mean fluorescence of the stained population treated without (Control) or with 50 uM CCCP. […] The membrane potential-dependent mitochondrial staining by compound No. 16 makes the dye useful for assessing the health of cells as only healthy cells have functional mitochondria and have normal membrane potential. For example, cells undergoing apoptosis are known to lose membrane potential.
# [5] = Measurement of absorption and emission spectra of free dyes or dye-protein conjugates; format: physicochemical; conditions: in MeOH
# [6] = cited from earlier work; for absorption wavelength: commercial cyanine dyes used for the 633 nm laser
# [7] = known xanthene dyes, background
Compound,Absorption Wavelengths [1],Emission Wavelengths [1] [nm],other results
CC1N=c2c(cc3c(c2S(=O)(=O)O)Oc2c(cc4c(c2S(=O)(=O)O)NC(C)C4(C)C)C=3c2nccn2CCCCCC(=O)ON2C(=O)CCC2=O)C1(C)C (centres unmarked) [Compound No. 1],548 nm,571,
CC1CC(C)(C)Nc2c1cc1c(c2S(=O)(=O)O)Oc2c(S(=O)(=O)O)c3c(cc2=C1c1nccn1CCCCCC(=O)ON1C(=O)CCC1=O)C(C)CC(C)(C)N=3 (centres unmarked) [Compound No. 2],559 nm,579,
CC1CC(C)(C)Nc2c1cc1c(c2S(=O)(=O)O)Oc2c(S(=O)(=O)O)c3c(cc2=C1c1[nH]cnc1C(=O)O)C(C)CC(C)(C)N=3 (centres unmarked) [Compound No. 3],529 nm,548,
CC1(C)C=C(CS(=O)(=O)O)c2cc3c(cc2=N1)Oc1cc2c(cc1C=3c1nccn1CCCCCC(=O)ON1C(=O)CCC1=O)C(CS(=O)(=O)O)=CC(C)(C)N2 [Compound No. 4],603 nm,626,
CCN1c2cc3c(cc2C(CS(=O)(=O)[O-])=CC1(C)C)C(c1nccn1CCCCCC(=O)ON1C(=O)CCC1=O)=c1cc2c(cc1O3)=[N+](CC)C(C)(C)C=C2CS(=O)(=O)O [Compound No. 5],622 nm,649,
CCN1c2cc3c(cc2C(CS(=O)(=O)O)=CC1(C)C)C(c1nccn1CCCCCC(=O)NCCOCCOCCOCCOCCOCCOCCOCCOCCOCCOCCOCCOC(=O)ON1C(=O)CCC1=O)=c1cc2c(cc1O3)=[N+](CC)C(C)(C)C=C2CS(=O)(=O)[O-] [Compound No. 6],622 nm,649,absorption peak ([1]; FIG. 1: conjugated to goat anti-mouse IgG in PBS): about 633 nm; photostability [2]: significantly more photostable than DyLight 633; also recorded: approximately similar stability to that of Alexa Fluor 633; also recorded: very photostable
CC1(C)C=C(CS(=O)(=O)[O-])c2cc3c(c4c2N1CCC4)Oc1c2c4c(cc1=C3c1nccn1CCCCCC(=O)ON1C(=O)CCC1=O)C(CS(=O)(=O)O)=CC(C)(C)[N+]=4CCC2 [Compound No. 7],638 nm,660,
CCN1c2cc3c(cc2C(C)=CC1(C)C)C(c1nccn1Cc1ccc(CCl)cc1)=c1cc2c(cc1O3)=[N+](CC)C(C)(C)C=C2C.[Cl-] [Compound No. 9],622 nm,648,
CCN1c2cc3c(cc2C(C)=CC1(C)C)C(c1nccn1C)=c1cc2c(cc1O3)=[N+](CC)C(C)(C)C=C2C [Compound No. 16],,,localization of dye in live cells [3]: concentrated in the mitochondria; membrane potential dependence of mitochondrial staining [4]: stains mitochondria in a membrane potential-dependent fashion; also recorded: sensitive to disruption of the mitochondrial membrane potential; Absorption Wavelengths [5]: 622 nm; Emission Wavelengths [5]: 648 nm
CC1CC(C)(C)Nc2c1cc1c(c2S(=O)(=O)[O-])Oc2c(S(=O)(=O)O)c3c(cc2=C1c1n(CCCCCC(=O)ON2C(=O)CCC2=O)cc[n+]1C)C(C)CC(C)(C)N=3 (centres unmarked) [Compound No. 29],592 nm,615,
CCN1c2cc3c(cc2C(C)=CC1(C)C)C(c1nc2ccccc2n1C)=c1cc2c(cc1O3)=[N+](CC)C(C)(C)C=C2C.[Cl-] [Compound No. 70],,,Absorption Wavelengths [5]: 628 nm; Emission Wavelengths [5]: 656 nm
CCN1c2cc3c(cc2C(C)=CC1(C)C)C(c1n(C)cc[n+]1C)=c1cc2c(cc1O3)=[N+](CC)C(C)(C)C=C2C [Compound No. 74],,,localization of dye in live cells [3]: concentrated in the mitochondria; Absorption Wavelengths [5]: 660 nm; Emission Wavelengths [5]: 688 nm
CC1(C)C=C(CS(=O)(=O)[O-])c2cc3c(c4c2N1CCC4)Oc1c2c4c(cc1=C3c1n(CCCCCC(=O)ON3C(=O)CCC3=O)cc[n+]1CCCS(=O)(=O)O)C(CS(=O)(=O)[O-])=CC(C)(C)[N+]=4CCC2 [Compound No. 75],680 nm,701,
CCN1/C(=C/C=C/C=C/C2=[N+](CCCCCC(=O)O)c3ccc(S(=O)(=O)O)cc3C2(C)C)C(C)(C)c2cc(S(=O)(=O)[O-])ccc21 [Cy5],,,absorption wavelength [6]: ~650 nm
Alexa Fluor 647 [reference compound],,,time to being essentially totally bleached ([2]; goat anti-mouse IgG conjugates on fixed Jurkat cells (FIG. 5)): about 1 minute; photostability [2]: poor photostability; absorption wavelength [6]: ~650 nm
carboxy-rhodamine 110,,,"absorption maxima [6, 7]: 502 nm; emission maxima [6, 7]: 524 nm"

# Second part, led by results:
Absorption Wavelengths [1],Emission Wavelengths [1] [nm],Compound,other results
622 nm,649,CCN1c2cc3c(cc2C(CS(=O)(=O)[O-])=CC1(C)C)C(c1nccn1CCCCCC(=O)ON1C(=O)CCC1=O)=c1cc2c(cc1O3)=[N+](CCCS(=O)(=O)O)C(C)(C)C=C2CS(=O)(=O)O [compound 10],
485 nm,508,N=c1ccc2c(-c3[nH]cnc3C(=O)O)c3ccc(N)cc3oc-2c1 [compound 21],
599 nm,~620,CCN1c2cc3c(cc2C(C)=CC1(C)C)C(c1ccncc1C(=O)[O-])=c1cc2c(cc1O3)=[N+](CCCCCC(=O)O)C(C)(C)C=C2C [compound 23],
642 nm,662,CC1(C)C=C(CS(=O)(=O)O)c2cc3c(cc2=N1)Oc1cc2c(cc1C=3c1n(CCCCCC(=O)ON3C(=O)CCC3=O)cc[n+]1CCCS(=O)(=O)O)C(CS(=O)(=O)[O-])=CC(C)(C)N2 [compound 71],
660 nm,681,CCN1c2cc3c(cc2C(CS(=O)(=O)[O-])=CC1(C)C)C(c1n(CC(=O)N2CCC(C(=O)ON4C(=O)CCC4=O)CC2)cc[n+]1CCCS(=O)(=O)O)=c1cc2c(cc1O3)=[N+](CC)C(C)(C)C=C2CS(=O)(=O)[O-] [compound 72],
593 nm,614,CC1CC(C)(C)Nc2c1cc1c(c2S(=O)(=O)[O-])Oc2c(S(=O)(=O)O)c3c(cc2=C1c1n(CCCCCC(=O)ON2C(=O)CCC2=O)cc[n+]1CCCS(=O)(=O)O)C(C)CC(C)(C)N=3 (centres unmarked) [compound 76],
578 nm⁻¹,,C/N=c1\cc2oc3cc(NC)c(S(=O)(=O)O)cc3c(-c3nccn3CCCCCC(=O)O)c-2cc1S(=O)(=O)O [compound 77],
533 nm,550,O=C(O)CCCCCn1ccnc1-c1c2cc/c(=N/CC(F)(F)F)cc-2oc2cc(NCC(F)(F)F)ccc12 [compound 84],
627 nm,698,CCN1c2cc3c(cc2C(C)=CC1(C)C)C(c1nccs1)=c1cc2c(cc1O3)=[N+](CC)C(C)(C)C=C2C [compound 85],
647 nm,676,CCN1c2cc3c(cc2C(C)=CC1(C)C)C(c1cocn1)=c1cc2c(cc1O3)=[N+](CC)C(C)(C)C=C2C [compound 87],
